These results are taken from US9062041B2 (Bayer Intellectual Property GmbH, priority 2011, dated 2015).

Format in all cases: cell-based
Test [1] has as its target EP2 subtype of the human PGE2 receptor (Homo sapiens, UniProt P43116). Briefly: cAMP antagonism test on the human EP2 receptor (HTRF cAMP detection). The settings on record: hEP2 receptor, read-out: Antagonism hEP2 IC50. In short, it runs like this: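 Read-out is a competitive HTRF for cAMP: lysate cAMP displaces cAMP-d2 from Eu cryptate-labelled antibody, and antagonism raises the 665/620 nm ratio. Compound (0.8 nM–16.5 μM) added to EP2 cells 20 min at RT before 60 min PGE2 challenge (3× stock 1.5 nM) with IBMX, followed by 20 min lysis.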
(In general: Time-resolved FRET reads energy transfer from a long-lived donor to a nearby acceptor.)

Test [2] has as its target T1, human PGD receptor (Homo sapiens, UniProt Q13258).
T1 sequence (Q13258 1-359): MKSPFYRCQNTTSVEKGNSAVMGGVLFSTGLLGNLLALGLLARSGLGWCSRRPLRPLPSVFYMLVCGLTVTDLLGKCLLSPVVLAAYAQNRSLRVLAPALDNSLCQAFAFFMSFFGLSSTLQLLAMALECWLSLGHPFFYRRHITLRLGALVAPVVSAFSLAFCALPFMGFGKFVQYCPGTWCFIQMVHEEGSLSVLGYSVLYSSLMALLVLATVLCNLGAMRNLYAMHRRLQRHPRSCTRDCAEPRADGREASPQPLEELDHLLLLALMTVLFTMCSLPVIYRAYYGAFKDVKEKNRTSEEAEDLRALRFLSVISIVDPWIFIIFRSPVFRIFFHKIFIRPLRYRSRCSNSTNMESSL
Nature of the test: cAMP antagonism test on the human prostaglandin D receptor (HTRF cAMP detection). To be noted: selectivity towards hDP, IC50 measured by cAMP antagonism test. In short, it runs like this: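 HTRF competition read-out (665/620 nm ratio ×10000), where higher FRET means less cAMP, i.e. antagonism. Compounds (0.8 nM–16.5 μM) were preincubated 20 min at RT with cells and cAMP-d2, PGD2 (3× solution, 6 nM) in IBMX-containing PBS added for 30 min at RT, then cells lysed 20 min.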

Test [3] concerns the target EP4 subtype of the human PGE2 receptor (Homo sapiens, UniProt P35408). Nature of the test: cAMP antagonism test on the human EP4 receptor (HTRF cAMP detection). The settings on record: selectivity towards hEP4, IC50 measured by cAMP antagonism test. In short, it runs like this: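 Competitive HTRF cAMP read-out (cAMP-d2 vs Eu-cryptate anti-cAMP antibody, 665/620 nm ratio) on lysed human EP4 cells. Compound (0.8 nM–16.5 μM) applied 20 min at RT before 60 min PGE2 challenge (3× solution 0.3 nM, IBMX present); 20 min lysis precedes reading.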

EP4 subtype of the human PGE2 receptor, sequence (P35408 whole entry): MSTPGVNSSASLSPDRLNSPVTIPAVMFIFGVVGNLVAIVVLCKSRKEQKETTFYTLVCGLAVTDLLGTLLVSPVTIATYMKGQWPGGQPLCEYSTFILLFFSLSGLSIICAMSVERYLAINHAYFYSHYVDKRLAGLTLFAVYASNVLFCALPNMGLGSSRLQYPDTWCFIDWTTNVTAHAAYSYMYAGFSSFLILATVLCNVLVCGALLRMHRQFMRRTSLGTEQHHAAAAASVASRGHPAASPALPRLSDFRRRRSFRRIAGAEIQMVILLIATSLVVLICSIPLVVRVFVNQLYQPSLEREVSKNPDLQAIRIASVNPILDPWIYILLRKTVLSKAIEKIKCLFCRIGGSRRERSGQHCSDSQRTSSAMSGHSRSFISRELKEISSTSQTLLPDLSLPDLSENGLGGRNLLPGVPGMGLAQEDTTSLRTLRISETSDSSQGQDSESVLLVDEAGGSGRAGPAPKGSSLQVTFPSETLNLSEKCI
EP2 subtype of the human PGE2 receptor, sequence (P43116 whole entry): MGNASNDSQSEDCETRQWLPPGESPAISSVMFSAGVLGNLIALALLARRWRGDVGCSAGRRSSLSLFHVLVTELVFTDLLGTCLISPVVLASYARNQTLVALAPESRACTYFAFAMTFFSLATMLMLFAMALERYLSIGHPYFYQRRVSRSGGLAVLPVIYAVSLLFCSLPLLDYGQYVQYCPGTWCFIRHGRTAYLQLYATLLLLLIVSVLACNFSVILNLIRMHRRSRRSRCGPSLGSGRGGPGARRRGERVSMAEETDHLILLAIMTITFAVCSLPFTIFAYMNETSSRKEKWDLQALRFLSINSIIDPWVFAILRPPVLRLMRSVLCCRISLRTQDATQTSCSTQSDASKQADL

As to `[2H]C([2H])([2H])OC([2H])([2H])C([2H])([2H])NC(=O)c1ccc2nn(CC3CCN(C(=O)c4ccc(Cl)cc4)CC3)cc2c1C` [Example 115, 2-{[1-(4-chlorobenzoyl)piperidin-4-yl]methyl}-N-(2-[^2H3]methoxy[^2H4]ethyl)-4-methyl-2H-indazol-5-carboxamide], in test [1], the IC50 was determined as 9.05 nM. Besides, the “Selectivity hEP2/hDP” value in test [2] is “xxx (xxx > 100)”. Moreover, the “Selectivity hEP2/hEP4” value in test [3] was “xxx (xxx > 100)”.

As for `COc1cc(F)ccc1-c1ccc(C(=O)N2CCC(Cn3cc4c(C)c(C(=O)NCC(F)(F)F)ccc4n3)CC2)cc1` [Example 320, 2-({1-[(4′-fluoro-2′-methoxybiphenyl-4-yl)carbonyl]piperidin-4-yl}methyl)-4-methyl-N-(2,2,2-trifluoroethyl)-2H-indazol-5-carboxamide], the half-inhibitory concentration (IC50) in test [1] worked out at 15.6 nM. The “Selectivity hEP2/hDP” value in test [2] is on record as “xxx (xxx > 100)”. Besides, in test [3], the “Selectivity hEP2/hEP4” value is “xxx (xxx > 100)”.

As for `COCCNC(=O)c1ccc2nn(CC3CN(C(=O)c4ccc(C(F)(F)F)cc4F)C3)cc2c1OC` [Example 255, 2-({1-[2-fluoro-4-(trifluoromethyl)benzoyl]azetidin-3-yl}methyl)-4-methoxy-N-(2-methoxyethyl)-2H-indazol-5-carboxamide], the IC50 in test [1] is 83.5 nM. The “Selectivity hEP2/hDP” value in test [2] is given as “xxx (xxx > 100)”. For the same compound, the “Selectivity hEP2/hEP4” value in test [3] is recorded as “xxx (xxx > 100)”.

Turning to `COCCNC(=O)c1ccc2nn(CC3CCN(C(=O)c4ccc(Oc5ccc(C(C)(C)C)cc5)cc4)CC3)cc2c1C` [Example 16, 2-({1-[4-(4-tert-butylphenoxy)-benzoyl]piperidin-4-yl}methyl)-N-(2-methoxyethyl)-4-methyl-2H-indazol-5-carboxamide], the half-maximal inhibitory concentration (IC50) in test [1] was 5.85 nM. Further, the “Selectivity hEP2/hDP” value in test [2] is reported as “xxx (xxx > 100)”. For the same compound, the “Selectivity hEP2/hEP4” value in test [3] was “xxx (xxx > 100)”.

Take `Cc1c(C(=O)NCCOC(C)(C)C)ccc2nn(CC3CN(C(=O)c4ccc(Cl)cc4)C3)cc12` [Example 153, N-(2-tert-butoxyethyl)-2-{[1-(4-chlorobenzoyl)azetidin-3-yl]methyl}-4-methyl-2H-indazol-5-carboxamide]: the IC50 in test [1] is 60.8 nM. Besides, the “Selectivity hEP2/hDP” value in test [2] was “xxx (xxx > 100)”. Moreover, the “Selectivity hEP2/hEP4” value in test [3] was “xxx (xxx > 100)”.

Regarding `COCCNC(=O)c1ccc2nn(CC3CCN(C(=O)c4ccc(Oc5ccccc5F)cc4)CC3)cc2c1C` [Example 366, 2-({1-[4-(2-fluorophenoxy)benzoyl]piperidin-4-yl}methyl)-N-(2-methoxyethyl)-4-methyl-2H-indazol-5-carboxamide], in test [1], the concentration for half-maximal inhibition (IC50) turned out to be 18.9 nM. Moreover, the “Selectivity hEP2/hDP” value in test [2] was “xxx (xxx > 100)”. Also, the “Selectivity hEP2/hEP4” value in test [3] is “xxx (xxx > 100)”.

On to `Cc1c(C(=O)NCCN2CCOCC2)ccc2nn(CC3CCN(C(=O)c4ccc(C(F)(F)F)cc4F)CC3)cc12` [Example 58, 2-({1-[2-fluoro-4-(trifluoromethyl)benzoyl]piperidin-4-yl}methyl)-4-methyl-N-(2-morpholinoethyl)-2H-indazol-5-carboxamide], for which, in test [1], the IC50 is 1080 nM. In addition, in test [2], the “Selectivity hEP2/hDP” value is on record as “xx (xx: 10-100)”. The “Selectivity hEP2/hEP4” value in test [3] is given as “xx (xx: 10-100)”.

Consider `Cc1c(C(=O)NCCC#N)ccc2nn(CC3CCN(C(=O)c4ccc(-c5ccc(F)cc5)cc4)CC3)cc12` [Example 407, N-(2-cyanoethyl)-2-({1-[(4′-fluorobiphenyl-4-yl)carbonyl]piperidin-4-yl}-methyl)-4-methyl-2H-indazol-5-carboxamide], for which the IC50 in test [1] was determined as 11.6 nM. Also, the “Selectivity hEP2/hDP” value in test [2] is listed as “xxx (xxx > 100)”. For the same compound, the “Selectivity hEP2/hEP4” value in test [3] is given as “xxx (xxx > 100)”.

As to `COCCNC(=O)c1ccc2nn(CC3CCN(C(=O)c4ccc(-n5cncn5)cc4)CC3)cc2c1C` [Example 39, N-(2-methoxyethyl)-4-methyl-2-({1-[4-(1H-1,2,4-triazol-1-yl)benzoyl]piperidin-4-yl}methyl)-2H-indazol-5-carboxamide], in test [1], the concentration for half-maximal inhibition (IC50) was 113 nM. For the same compound, the “Selectivity hEP2/hDP” value in test [2] was “xxx (xxx > 100)”. In test [3], the “Selectivity hEP2/hEP4” value was “xxx (xxx > 100)”.

In the case of `O=C(NCCOCC1CC1)c1ccc2nn(CC3CCN(C(=O)c4ccc(Oc5ccc(F)cc5)cc4)CC3)cc2c1OC(F)F` [Example 230, N-[2-(cyclopropylmethoxy)ethyl]-4-(difluoromethoxy)-2-({1-[4-(4-fluoro-phenoxy)benzoyl]piperidin-4-yl}methyl)-2H-indazol-5-carboxamide], in test [1], the IC50 is 13.7 nM. For the same compound, the “Selectivity hEP2/hDP” value in test [2] is “xxx (xxx > 100)”. Moreover, the “Selectivity hEP2/hEP4” value in test [3] is reported as “xxx (xxx > 100)”.

On to `Cc1c(C(=O)NCCOC(C)(C)C)ccc2nn(CC3CCN(C(=O)c4ccc(Oc5ccc(F)cc5)cc4)CC3)cc12` [Example 112, N-(2-tert-butoxyethyl)-2-({1-[4-(4-fluoro-phenoxy)benzoyl]-piperidin-4-yl}methyl)-4-methyl-2H-indazol-5-carboxamide], for which the IC50 in test [1] was 11.9 nM. Also, the “Selectivity hEP2/hDP” value in test [2] is reported as “xxx (xxx > 100)”. Besides, the “Selectivity hEP2/hEP4” value in test [3] was “xxx (xxx > 100)”.

In the case of `COCCNC(=O)c1ccc2nn(CC3CCN(C(=O)c4ccc(C)cc4)CC3)cc2c1C` [Example 12, N-(2-methoxyethyl)-4-methyl-2-{[1-(4-methylbenzoyl)-piperidin-4-yl]-methyl)-2H-indazol-5-carboxamide], in test [1], the IC50 worked out at 20.3 nM. Further, the “Selectivity hEP2/hDP” value in test [2] was “xxx (xxx > 100)”. In addition, in test [3], the “Selectivity hEP2/hEP4” value is given as “xxx (xxx > 100)”.

Take `Cc1c(C(=O)NCCN2CCOCC2)ccc2nn(CC3CCN(C(=O)c4cccc(OC(F)(F)F)c4)CC3)cc12` [Example 61, 4-methyl-N-(2-morpholinoethyl)-2-({1-[3-(trifluoromethoxy)benzoyl]piperidin-4-yl}methyl)-2H-indazol-5-carboxamide]: the IC50 in test [1] worked out at 1500 nM. For the same compound, the “Selectivity hEP2/hDP” value in test [2] is listed as “xx (xx: 10-100)”. The “Selectivity hEP2/hEP4” value in test [3] is “xx (xx: 10-100)”.

With `COCCNC(=O)c1ccc2nn(CC3CN(C(=O)c4ccc(Br)cc4)C3)cc2c1OC` [Example 216, 2-{[1-(4-bromobenzoyl)azetidin-3-yl]methyl}-4-methoxy-N-(2-methoxyethyl)-2H-indazol-5-carboxamide], the IC50 in test [1] is 86.1 nM. In addition, the “Selectivity hEP2/hDP” value in test [2] is listed as “xxx (xxx > 100)”. Further, in test [3], the “Selectivity hEP2/hEP4” value is given as “xxx (xxx > 100)”.

In the case of `CCOc1c(C(=O)NCCOC)ccc2nn(CC3CCN(C(=O)c4ccc(Cl)cc4)CC3)cc12` [Example 274, 2-{[1-(4-chlorobenzoyl)piperidin-4-yl]methyl}-4-ethoxy-N-(2-methoxyethyl)-2H-indazol-5-carboxamide], in test [1], the half-inhibitory concentration (IC50) turned out to be 44.6 nM. The “Selectivity hEP2/hDP” value in test [2] is on record as “xxx (xxx > 100)”. Further, the “Selectivity hEP2/hEP4” value in test [3] was “xxx (xxx > 100)”.

Take `COCCNC(=O)c1ccc2nn(CC3CN(C(=O)c4ccc(Oc5ccc(C(F)(F)F)cc5)cc4)C3)cc2c1C` [Example 125, N-(2-methoxyethyl)-4-methyl-2-[(1-{4-[4-(trifluoromethyl)phenoxy]benzoyl}azetidin-3-yl)methyl]-2H-indazol-5-carboxamide]: the half-inhibitory concentration (IC50) in test [1] is 3.66 nM. In addition, the “Selectivity hEP2/hDP” value in test [2] was “xxx (xxx > 100)”. Further, the “Selectivity hEP2/hEP4” value in test [3] was “xxx (xxx > 100)”.

For `COCCNC(=O)c1ccc2nn(CC3CCN(C(=O)c4ccc(Oc5ccc(Cl)cn5)cc4)CC3)cc2c1C` [Example 357, 2-[(1-{4-[(5-chloropyridin-2-yl)oxy]benzoyl}piperidin-4-yl)methyl]-N-(2-methoxyethyl)-4-methyl-2H-indazol-5-carboxamide], the half-maximal inhibitory concentration (IC50) in test [1] was 7.36 nM. Further, the “Selectivity hEP2/hDP” value in test [2] is on record as “xxx (xxx > 100)”. In test [3], the “Selectivity hEP2/hEP4” value is “xxx (xxx > 100)”.

On to `Cc1ccc(C(=O)N2CCC(Cn3cc4c(C)c(C(=O)NCCOCC5CC5)ccc4n3)CC2)cc1` [Example 85, N-[2-(cyclopropyl-methoxy)ethyl]-4-methyl-2-{[1-(4-methylbenzoyl)-piperidin-4-yl]-methyl}-2H-indazol-5-carboxamide], for which the IC50 in test [1] turned out to be 35.5 nM. Moreover, the “Selectivity hEP2/hDP” value in test [2] was “xxx (xxx > 100)”. The “Selectivity hEP2/hEP4” value in test [3] is reported as “xxx (xxx > 100)”.

Take `COCCNC(=O)c1ccc2nn(CC3CCN(C(=O)c4cnc(-c5ccccc5)s4)CC3)cc2c1C` [Example 337, N-(2-methoxyethyl)-4-methyl-2-({1-[(2-phenylthiazol-5-yl)carbonyl]piperidin-4-yl}methyl)-2H-indazol-5-carboxamide]: the IC50 in test [1] worked out at 18.1 nM. Besides, the “Selectivity hEP2/hDP” value in test [2] was “xxx (xxx > 100)”. Also, the “Selectivity hEP2/hEP4” value in test [3] is recorded as “xxx (xxx > 100)”.

In general, IC50 refers to the point on the concentration scale where inhibition reaches its midpoint.
